Read-outs that look alike come from different tables or passages of the source.
Assays:
[1] = biological target: T1, T. cruzi glucokinase (TcGlcK) (Trypanosoma cruzi, UniProt Q4E4E1); test: Two-enzyme coupled colorimetric glucokinase activity assay (G6PDH/NADPH), TcGlcK; format: biochemical; details: for Glucokinase selectivity ratio = Ki (HsGlcK)/Ki (TcGlcK): higher values indicate better selectivity toward TcGlcK
T1 construct: precedes the start methionine and the 9-residue segment VGKKQKAQL at the C-terminal region was not included; made in house; host or cells: E. coli BL21(DE3)
Method: (§1) Enzymatic activity of glucokinase from T. cruzi and H. sapiens were both performed using a similar protocol but had minor modifications. In general, a two-enzyme coupled colorimetric assay was performed, as previously described (4). The assay is based on the formation of NADPH (λmax≈340 nm; ϵ340=6,220 M^−1 cm^−1) (5). In the 1st step of the assay, glucokinase/hexokinase in the presence of Mg^2+, ATP, and D-glucose react to form glucose-6-phosphate (G-6-P) and ADP. In the 2nd step, glucose-6-phosphate dehydrogenase (G6PDH) in the presence of the formed G-6-P and NADP^+ react to form 6-phosphogluconolactone and NADPH. All measurements were performed in triplicate at 22° C.
TcGlcK assays used purified enzyme (0.12 μM for the monomer (0.0051 mg/mL)) that was used in the reaction mixtures, which were carried out with S. cerevisiae G6PDH (0.0064 mg/mL) in an assay buffer [50 mM triethanolamine (pH 7.6), 7.95 mM MgCl2, 0.55 mM ATP, 0.55 mM NADP^+] contained substrate ([D-glucose] ranged from 0.2-15.0 mM) and inhibitor ([BENZ-GlcN] ranged from 0-20 μM; [CBZ-GlcN] ranged from 0-10 μM; [HPOP-GlcN] ranged from 0-10 μM; and [DBT-GlcN] ranged from 0-20 μM). Reactions were performed at room temperature (22° C.) and were terminated after 120 sec (optimal time) using 90 μL of 1.5 M EDTA (pH 8.0). The EDTA solution was prepared from the tetrasodium salt. For quantification of NADPH, UV-visible spectrophotometric absorbance readings were recorded at 338 nm (λ) with an Agilent 8453 UV-visible spectrophotometer exactly 1 min after solutions were treated with the EDTA solution. Concentration of NADPH was determined through Beer's Law using the molar absorptivity of 6,220 M^−1 cm^−1.

[2] = biological target: T2, Homo sapiens glucokinase (hexokinase IV) (HsGlcK) (Homo sapiens, UniProt P35557); test: Two-enzyme coupled colorimetric glucokinase activity assay (G6PDH/NADPH), HsGlcK; format: biochemical; details: measurements in triplicate, 22° C., substrate D-glucose, compounds tested as racemic mixtures (n ≥ 2), read-out: Ki versus substrate, HsGlcK
T2 construct: precedes residue K12 (N-terminal segment M1-A11 of HsGlcK was not included); made in house; host or cells: E. coli BL21(DE3)
T2 sequence (P35557 12-457 limits assumed): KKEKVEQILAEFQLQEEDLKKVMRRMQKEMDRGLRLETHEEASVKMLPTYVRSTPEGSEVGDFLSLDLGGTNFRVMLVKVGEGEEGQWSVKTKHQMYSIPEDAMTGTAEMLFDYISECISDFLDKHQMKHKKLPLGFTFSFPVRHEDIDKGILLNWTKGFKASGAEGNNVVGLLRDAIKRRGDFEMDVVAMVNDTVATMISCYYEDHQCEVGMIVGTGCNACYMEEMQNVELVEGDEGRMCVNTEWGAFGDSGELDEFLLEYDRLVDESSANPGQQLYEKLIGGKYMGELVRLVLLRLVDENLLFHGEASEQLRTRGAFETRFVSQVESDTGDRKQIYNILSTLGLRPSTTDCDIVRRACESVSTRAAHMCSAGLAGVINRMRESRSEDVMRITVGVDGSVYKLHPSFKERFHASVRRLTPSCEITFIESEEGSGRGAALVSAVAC
Method: as §1
HsGlcK assays were performed at room temperature and used the same protocol implemented for TcGlcK (see above) except that the reactions were terminated after 600 sec (optimum time) with 90 μL of 1.5 M EDTA (pH 8.0) and the reaction mixtures had slight modification. Briefly, DTT, which reduces disulfide bonds was added to the stock solution aliquot of HsGlcK on the day of the experiment (e.g. 1.0 μL of 20 mM DTT was mixed with 99.0 μL of 1.0 mg/mL HsGlcK) and was allowed to pre-equilibrate at 4° C. for 30 min prior to running assay reactions. Purified HsGlcK (0.15 μM for the monomer or 0.0077 mg/mL) and S. cerevisiae G6PDH (0.0064 mg/mL) in an assay buffer [50 mM triethanolamine (pH 7.6), 7.95 mM MgCl2, 5.0 mM ATP, 0.55 mM […], 1.0% (v/v) DMSO, 1.0 mM DTT, 5.0 mM KCl] contained substrate ([D-glucose] ranged from 5.0-50.0 mM) and inhibitor ([BENZ-GlcN] ranged from 0-500 μM; [CBZ-GlcN] ranged from 0-500 μM; and [HPOP-GlcN] ranged from 0-500 μM). DBT-GlcN was not used in the inhibition enzymatic assays because this compound absorbs light at the wavelength of NADPH (338 nm) at the concentrations needed for any reasonable inhibition of HsGlcK.

[3] = system: T. cruzi (Tulahuen strain) intracellular amastigote parasite cells; test: T. cruzi in-vitro growth inhibition assay, amastigotes co-cultured in NIH/3T3 fibroblasts; format: cell-based; details: Trypanosoma cruzi, NIH3T3, co-cultured within NIH/3T3 fibroblast cells, triplicate
Method: T. cruzi (Tulahuen strain) intracellular amastigote parasite cells co-cultured within NIH/3T3 mammalian fibroblast cells were tested for in-vitro growth inhibition from each of Samples 1-4. […] Samples 1, 3, and 4 had IC50 values>40 μM. The methods used for producing cultures of T. cruzi cells and mammalian cells in addition to the methods of performing T. cruzi in-vitro inhibition assays were previously described by Andriani and colleagues (20). All biological experimentation was carried out at the Anti-Infectives Screening Core Service Center at New York University School of Medicine, Department of Microbiology.

[4] = colorimetric assay, measurements in triplicate, 22° C., substrate D-glucose, compounds tested as racemic mixtures (n ≥ 2), read-out: Ki versus substrate, TcGlcK

T1 sequence (Q4E4E1 entry or part of it): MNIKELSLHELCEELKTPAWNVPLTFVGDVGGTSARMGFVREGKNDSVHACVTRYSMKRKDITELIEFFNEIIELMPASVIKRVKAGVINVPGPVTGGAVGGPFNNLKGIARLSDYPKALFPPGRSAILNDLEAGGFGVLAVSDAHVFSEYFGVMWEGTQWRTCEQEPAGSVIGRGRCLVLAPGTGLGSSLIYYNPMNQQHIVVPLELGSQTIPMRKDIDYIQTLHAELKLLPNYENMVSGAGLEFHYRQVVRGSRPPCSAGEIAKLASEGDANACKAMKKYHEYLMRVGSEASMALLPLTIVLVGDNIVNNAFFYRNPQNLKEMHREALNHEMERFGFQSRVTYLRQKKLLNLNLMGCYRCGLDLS

Row | Compound | Ki [1] [µM] | Glucokinase selectivity ratio = Ki (HsGlcK)/Ki (TcGlcK) [1] | Ki [2] [µM] | IC50 [3] [µM] | Ki [1, 4] [µM]
1 | O=C(N[C@H]1C(O)O[C@H](CO)[C@@H](O)[C@@H]1O)OCc1ccccc1 (mixture of isomers) [CBZ-GlcN, 2-N-carboxybenzyl-2-deoxy-D-glucosamine] | 0.71 ± 0.05 | 245 | 174 ± 50 | > 40 | 
2 | O=C(N[C@H]1C(O)O[C@H](CO)[C@@H](O)[C@@H]1O)OCC1=Cc2ccccc2S1(=O)=O (mixture of isomers) [DBT-GlcN, 2-[[1,1-dioxobenzo[b]thiophen-2-yl]methyloxocarbonylamino]-2-deoxy-D-glucosamine] |  |  |  | > 40 | 4.1 ± 0.3
3 | O=C(N[C@H]1C(O)O[C@H](CO)[C@@H](O)[C@@H]1O)c1ccccc1 (stereo partly drawn) [BENZ-GlcN, 2-benzamido-2-deoxy-D-glucopyranose] |  | 12 | 376 ± 196 | 16.08 ± 0.16 | 32 ± 26
4 | O=C(CCc1ccc(O)cc1)N[C@H]1C(O)O[C@H](CO)[C@@H](O)[C@@H]1O (mixture of isomers) [HPOP-GlcN, 2-[[3-(4-hydroxyphenyl)-1-oxopropyl]amino]-2-deoxy-D-glucosamine] | 1.3 ± 0.6 | 186 | 242 ± 97 | > 40 | 
